According to US6950757B2, “Screening methods for identifying ligands” (Emerald BioStructures, Inc., priority 2001, dated 2005):

Experiments:
Assay type in all cases: binding
[1] = molecular target: T1, topo70-DNA covalent complex (Homo sapiens, UniProt P11387); assay: Crystallization trials with VII-2 solutions in the absence or presence of Topotecan; settings: condition VII-2 #3; 1 microliter of 1 mM ligand in water vs water only; 16° C., several days
T1 construct: human topoisomerase I construct of residues Lys175 to Phe765; made in house; host or cells: baculovirus-insect cell (SF9)
T1 sequence (P11387 175-765): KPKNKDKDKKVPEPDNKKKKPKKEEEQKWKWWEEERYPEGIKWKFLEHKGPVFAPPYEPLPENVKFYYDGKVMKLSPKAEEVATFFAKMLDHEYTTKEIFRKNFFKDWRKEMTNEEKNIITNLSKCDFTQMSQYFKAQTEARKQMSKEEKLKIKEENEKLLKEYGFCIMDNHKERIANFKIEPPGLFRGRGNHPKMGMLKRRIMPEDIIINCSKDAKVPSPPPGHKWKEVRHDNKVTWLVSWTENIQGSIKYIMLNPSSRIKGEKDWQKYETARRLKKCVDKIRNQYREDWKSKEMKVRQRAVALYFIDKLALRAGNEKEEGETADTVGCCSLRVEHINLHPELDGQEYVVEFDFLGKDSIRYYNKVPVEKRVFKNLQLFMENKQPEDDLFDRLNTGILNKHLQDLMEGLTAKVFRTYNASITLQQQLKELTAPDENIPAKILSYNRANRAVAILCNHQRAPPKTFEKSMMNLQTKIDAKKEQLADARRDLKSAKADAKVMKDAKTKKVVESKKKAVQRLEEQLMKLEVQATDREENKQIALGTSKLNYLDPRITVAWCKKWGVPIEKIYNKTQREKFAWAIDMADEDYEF
Method: The four different VII-2 formulations each contained one or more of the chemical components found in the lead crystallization conditions, plus additional components such as 10 mM DTT. The four VII-2 crystallization conditions were as follows:
A Cryschem tray was used to screen each of the four VII-2 crystallization solutions for their ability to promote crystallization of topo70-DNA complexes in the absence or presence of Topotecan, an analogue of camptothecin. The crystallization experiments were set up by first placing 500 microliters of the VII-2 screening solutions in duplicate individual reservoir chambers. Next, 3 microliters of each reservoir solution was placed into the drop chambers. The drop chamber solutions were then mixed by pipetting with 1.5 microliters of 0.05 mM suicide duplex oligonuceotide substrate in 6 mM NaCl. One microliter of 1 mM Topotecan in pure water or 1 microliter of pure water only was added to each of the duplicate drop chambers. Then 2 microliters of topo70 at 3 mg/ml in 10 mM Tris-HCl pH 7.5, 1 mM EDTA, and 1 mM DTT was added to each of the drop chambers. The crystallization tray was sealed with crystal clear sealing tape (marketed by Manco, Inc. Avon, Ohio), and incubated at 16° C.

[2] = molecular target: T1, topo70-DNA covalent complex; assay: Crystal growth assay (crystal growth dependence on ligand), T80P CBS-cross solutions; settings: 16° C.
Method: The chemical components of each crystallization formulation were classified as being either a crystallant, buffer, or salt. The various crystallants were as follows:
CBS-cross crystallization screening formulations were prepared with all possible combinations of crystallants, buffers and salts.
In one set of crystallization experiments, the T80P crystallization screen was used in a Combinatorial Clover Plate developed by Emerald BioStructures, Inc. [Kim et al.], which allows for the rapid set up of multiple crystallizations in a common vapor diffusive environment.
The 24 reservoir chambers of the Combinatorial Clover Plate were filled with 1.0 milliliter of each of the 24 different T80P formulations. Once the T80P formulations had been individually placed into the reservoir chambers, 2 microliters of each individual crystallization screening formulation was placed into each of the four the sitting drop chambers that are connected to the common reservoir by dedicated vapor diffusion channels. This was followed by the addition of 1 microliter of duplex suicide oligonucleotide substrate (0.05 mM duplex, 6 mM NaCl) into the drop chamber.
The duplex was mixed with the crystallization screening solution by repeated pipetting. This was followed by the addition 0.1 microliter of 10 mM Topotecan to the upper two drop chambers of each crystallization clover. […]

[3] = molecular target: T2, topo70-DNA covalent complex (Form 7 apo-crystals) (Homo sapiens, UniProt P11387); assay: Crystal cracking of Form 7 crystals (crystal-cracking assay); settings: 16° C., approximately 3 hours
T2 construct: human topoisomerase I construct of residues Lys175 to Phe765; made in house; host or cells: baculovirus-insect cell (SF9)
T2 sequence (P11387 175-765): T1 sequence (P11387 175-765)
From the text: Cracking of the crystal after exposure to the potential ligand(s) indicates binding between at least one potential ligand and the macromolecule. This assay is referred to herein as the “crystal-cracking” assay.
The crystal cracking assay of the invention involves the development of optimized crystal growth conditions that depend on the absence of the ligand to produce a supply of macromolecule crystals, referred to herein as apo-crystals, then soaking the apo-crystals in a solution containing one or more potential ligands. If a ligand actually binds to the macromolecule, it initiates a conformational change in the crystal resulting in an observable cracking of the crystal.
Several rounds of similar optimization screening experiments eventually led to the identification of a definitive crystallization condition that produces crystals of the topo70-DNA covalent complex only in the absence of Topotecan (designate Form 7). The Form 7 crystals were grown at 16° C. under optimized conditions by vapor diffusion equilibration against a 500 microliter reservoir solution of 10% PEG 8000, 100 mM Tris-HCl pH 8.0, 100 mM Na/K phosphate pH 6.2, 100 mM KCl, and 10 mM DTT. The sitting drop crystallizations were prepared in drop chambers by mixing 2 microliters of reservoir solution with 2 microliters of 0.1 mM duplex DNA substrate in 6 mM NaCl, and 2 microliters 4 mg/ml topo70 in 10 mM Tris-HCl pH 7.5, 1 mM EDTA, and 1 mM DTT.
In order to test the effects of Topotecan and other topo I poisons on the integrity of Form 7 crystals, crystallization drops containing Form 7 crystals were subjected to the following treatments:
1. Injection of 3 microliters of a buffer solution containing 100 mM MES pH 6.3, and 100 mM Na/K phosphate pH 6.2 (buffer only control).
2. Injection of 3 microliters of 100 mM MES pH 6.3, 100 mM Na/K phosphate pH 6.2, and 0.32 mM Topotecan.
3. Injection of 3 microliters of 100 mM MES pH 6.3, 100 mM Na/K phosphate pH 6.2, 13% v/v DMSO, and 0.64 mM camptothecin.
4. […]

[4] = injection of 3 microliters of 0.64 mM ligand in 100 mM MES pH 6.3, 100 mM Na/K phosphate pH 6.2, 13% v/v DMSO

CC[C@@]1(O)C(=O)OCc2c1cc1n(c2=O)Cc2cc3c(CN(C)C)c(O)ccc3nc2-1 [Topotecan]
growth of putative topo70-DNA covalent complex crystals (Form 7) with ligand present vs absent [1]: grow in condition VII-2 #3 only when Topotecan was absent
ligand-dependent crystal growth (Form 9 crystals) ([2]; T80P #9 and T80P #10, 0.1 microliter of 10 mM ligand, day 28, no crystals when ligand absent): produced crystals of distinct block morphology when Topotecan was present
effect on integrity of Form 7 crystals (crystal cracking) ([3]; injection of 3 microliters of 0.32 mM ligand in 100 mM MES pH 6.3, 100 mM Na/K phosphate pH 6.2): showed visible signs of micro cracks throughout the crystals

O=C(O)CCCn1c2c(c3ccccc3c1=O)C(=O)c1ccccc1-2 [MJ-II-38]
ligand-dependent crystal growth of ternary complex crystals ([2]; T80P #10, 0.5 microliter of 1 mM AG260 in 100% DMSO or 0.3 microliter of 1 mM MJ-II-38 in 90% v/v DMSO, several days): plate like crystals grew

CC[C@@]1(O)C(=O)OCc2c1cc1n(c2=O)Cc2cc3ccccc3nc2-1 [camptothecin]
effect on integrity of Form 7 crystals (crystal cracking) [3, 4]: showed visible signs of micro cracks throughout the crystals

CC[C@@]1(O)C(=O)OCc2c1cc1n(c2=O)Cc2cc3cc4c(cc3nc2-1)OCO4 [10,11 MDO-camptothecin, 10,11 MDO camptothecin]
effect on integrity of Form 7 crystals (crystal cracking) [3, 4]: had dissolved leaving only a trace pile of crystal bits
